According to patent US20220396577A1, “NOVEL SUBSTITUTED 1,3-8-TRIAZASPIRO[4,5] DECANE-2,4-DIONE COMPOUNDS AS INDOLEAMINE 2,3-DIOXYGENASE (IDO) AND/OR TRYPTOPHAN 2,3-DIOXYGENASE (TDO) INHIBITORS” (Merck Sharp & Dohme LLC, priority 2019, published 2022):

Legend:
CDK2 = CDK2 (Homo sapiens, UniProt P24941); assay: Off-target kinase panel, ZLYTE: CDK2; assay type: biochemical; settings: read-out: Estimated IC50 (uM) CDK2
Excerpt: (§1) The activity data was obtained in a panel of 265 and 264 for compounds 1-1 and CC-1, respectively, using the ZLYTE and ADAPTA assay methods indicated in the table below.
(§2) The ZLYTE biochemical assay employs a fluorescence-based, coupled-enzyme format and is based on the differential sensitivity of phosphorylated and non-phosphorylated peptides to proteolytic cleavage. The peptide substrate is labeled with two fluorophores—one at each end—that make up a Fluorescence Resonance Energy Transfer (FRET) pair.
(§3) In the primary reaction, the kinase transfers the gamma-phosphate of ATP to a single tyrosine, serine or threonine residue in a synthetic FRET-peptide. In the secondary reaction, a site-specific protease recognizes and cleaves non-phosphorylated FRET-peptides. Phosphorylation of FRET-peptides suppresses cleavage by the Development Reagent. […] A ratiometric method, which calculates the ratio (the Emission Ratio) of donor emission to acceptor emission after excitation of the donor fluorophore at 400 nm, is used to quantitate reaction progress, as shown in the equation below. […]
(§4) Both cleaved and uncleaved FRET-peptides contribute to the fluorescence signals and therefore to the Emission Ratio. The extent of phosphorylation of the FRET-peptide can be calculated from the Emission Ratio. […]
(§5) 10. Read on fluorescence plate reader and analyze the data.

TYK2 = TYK2 (Homo sapiens, UniProt P29597); assay: Off-target kinase panel, ZLYTE: TYK2; assay type: biochemical; settings: read-out: Estimated IC50 (uM) TYK2
Excerpt: as §1, §2, §3, §4, §5

TDO = biological target: T1, TDO (Homo sapiens, UniProt P48775); assay: TDO Cellular Assay (C), SW48 cells; assay type: cell-based; settings: 48 hours, second value of cell
T1 construct: endogenous in cells; host or cells: SW48 cells
Procedure: Compounds were serially diluted in DMSO and acoustically dispensed (LabCyte Echo) into each well of a black 384-well cell culture plate (Greiner). SW48 cells were diluted to a density of 2×10^5 cells/ml in complete RPMI culture medium supplemented with […] L-tryptophan and […] SW48 cells were dispensed to each well of 384-well plates with a compound. Plates are gently shaken and then incubated for 48 hours at 37° C. in an incubator with 5% CO2. After incubation, 12 μl of the detection agent (0.5 M isonipecotate in DMSO) was added to each well and incubated at 37° C. overnight. The fluorescent signal was read on a Spectramax plate reader with excitation at 400 nm and emission at 510 nm. The percent inhibition was determined by normalization to wells containing no compound relative to wells receiving no cells.

LRRK2 (G2019S) = LRRK2 (G2019S) (Homo sapiens, UniProt Q5S007, G2019S); assay: Off-target kinase panel, ADAPTA: LRRK2 (G2019S); assay type: biochemical; settings: read-out: Estimated IC50 (uM) LRRK2 (G2019S)
Excerpt: as §1
The Adapta universal kinase assay is a homogenous, fluorescent based immunoassay for the detection of ADP. In contrast to ATP depletion assays, the Adapta assay is highly sensitive to ADP formation such that a majority of the signal change occurs in the first 10-20% conversion of ATP to ADP. This makes the Adapta universal kinase assay well suited for use with low activity kinases.
The principle of the Adapta universal kinase assay is outlined below. The assay itself can be divided into two phases: a kinase reaction phase, and an ADP detection phase. In the kinase reaction phase, all components required for the kinase reaction are added to the well, and the reaction is allowed to incubate for 60 minutes. After the reaction, a detection solution consisting of a europium labeled anti-ADP antibody, an Alexa Fluor 647 labeled ADP tracer, and EDTA (to stop the kinase reaction) is added to the assay well. […]
ADP formation is determined by calculating the emission ratio from the assay well. The emission ratio is calculated by dividing the intensity of the tracer (acceptor) emission by the intensity of the Eu (donor) emission at 615 nm as shown in the equation below. […]
12. Read on fluorescence plate reader and analyze the data.

T1 sequence (P48775 whole entry): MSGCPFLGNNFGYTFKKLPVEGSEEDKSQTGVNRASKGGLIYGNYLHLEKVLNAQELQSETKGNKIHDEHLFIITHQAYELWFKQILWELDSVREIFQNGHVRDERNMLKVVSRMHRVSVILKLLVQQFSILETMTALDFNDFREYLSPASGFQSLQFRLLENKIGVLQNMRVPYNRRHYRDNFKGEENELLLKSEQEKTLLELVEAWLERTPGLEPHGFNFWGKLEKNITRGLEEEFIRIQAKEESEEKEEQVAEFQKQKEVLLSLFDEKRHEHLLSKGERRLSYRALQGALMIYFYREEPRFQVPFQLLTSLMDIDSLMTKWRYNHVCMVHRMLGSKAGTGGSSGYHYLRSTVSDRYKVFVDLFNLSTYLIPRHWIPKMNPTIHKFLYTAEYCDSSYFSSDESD
Sequence of LRRK2 (G2019S) (Q5S007 whole entry G2019S): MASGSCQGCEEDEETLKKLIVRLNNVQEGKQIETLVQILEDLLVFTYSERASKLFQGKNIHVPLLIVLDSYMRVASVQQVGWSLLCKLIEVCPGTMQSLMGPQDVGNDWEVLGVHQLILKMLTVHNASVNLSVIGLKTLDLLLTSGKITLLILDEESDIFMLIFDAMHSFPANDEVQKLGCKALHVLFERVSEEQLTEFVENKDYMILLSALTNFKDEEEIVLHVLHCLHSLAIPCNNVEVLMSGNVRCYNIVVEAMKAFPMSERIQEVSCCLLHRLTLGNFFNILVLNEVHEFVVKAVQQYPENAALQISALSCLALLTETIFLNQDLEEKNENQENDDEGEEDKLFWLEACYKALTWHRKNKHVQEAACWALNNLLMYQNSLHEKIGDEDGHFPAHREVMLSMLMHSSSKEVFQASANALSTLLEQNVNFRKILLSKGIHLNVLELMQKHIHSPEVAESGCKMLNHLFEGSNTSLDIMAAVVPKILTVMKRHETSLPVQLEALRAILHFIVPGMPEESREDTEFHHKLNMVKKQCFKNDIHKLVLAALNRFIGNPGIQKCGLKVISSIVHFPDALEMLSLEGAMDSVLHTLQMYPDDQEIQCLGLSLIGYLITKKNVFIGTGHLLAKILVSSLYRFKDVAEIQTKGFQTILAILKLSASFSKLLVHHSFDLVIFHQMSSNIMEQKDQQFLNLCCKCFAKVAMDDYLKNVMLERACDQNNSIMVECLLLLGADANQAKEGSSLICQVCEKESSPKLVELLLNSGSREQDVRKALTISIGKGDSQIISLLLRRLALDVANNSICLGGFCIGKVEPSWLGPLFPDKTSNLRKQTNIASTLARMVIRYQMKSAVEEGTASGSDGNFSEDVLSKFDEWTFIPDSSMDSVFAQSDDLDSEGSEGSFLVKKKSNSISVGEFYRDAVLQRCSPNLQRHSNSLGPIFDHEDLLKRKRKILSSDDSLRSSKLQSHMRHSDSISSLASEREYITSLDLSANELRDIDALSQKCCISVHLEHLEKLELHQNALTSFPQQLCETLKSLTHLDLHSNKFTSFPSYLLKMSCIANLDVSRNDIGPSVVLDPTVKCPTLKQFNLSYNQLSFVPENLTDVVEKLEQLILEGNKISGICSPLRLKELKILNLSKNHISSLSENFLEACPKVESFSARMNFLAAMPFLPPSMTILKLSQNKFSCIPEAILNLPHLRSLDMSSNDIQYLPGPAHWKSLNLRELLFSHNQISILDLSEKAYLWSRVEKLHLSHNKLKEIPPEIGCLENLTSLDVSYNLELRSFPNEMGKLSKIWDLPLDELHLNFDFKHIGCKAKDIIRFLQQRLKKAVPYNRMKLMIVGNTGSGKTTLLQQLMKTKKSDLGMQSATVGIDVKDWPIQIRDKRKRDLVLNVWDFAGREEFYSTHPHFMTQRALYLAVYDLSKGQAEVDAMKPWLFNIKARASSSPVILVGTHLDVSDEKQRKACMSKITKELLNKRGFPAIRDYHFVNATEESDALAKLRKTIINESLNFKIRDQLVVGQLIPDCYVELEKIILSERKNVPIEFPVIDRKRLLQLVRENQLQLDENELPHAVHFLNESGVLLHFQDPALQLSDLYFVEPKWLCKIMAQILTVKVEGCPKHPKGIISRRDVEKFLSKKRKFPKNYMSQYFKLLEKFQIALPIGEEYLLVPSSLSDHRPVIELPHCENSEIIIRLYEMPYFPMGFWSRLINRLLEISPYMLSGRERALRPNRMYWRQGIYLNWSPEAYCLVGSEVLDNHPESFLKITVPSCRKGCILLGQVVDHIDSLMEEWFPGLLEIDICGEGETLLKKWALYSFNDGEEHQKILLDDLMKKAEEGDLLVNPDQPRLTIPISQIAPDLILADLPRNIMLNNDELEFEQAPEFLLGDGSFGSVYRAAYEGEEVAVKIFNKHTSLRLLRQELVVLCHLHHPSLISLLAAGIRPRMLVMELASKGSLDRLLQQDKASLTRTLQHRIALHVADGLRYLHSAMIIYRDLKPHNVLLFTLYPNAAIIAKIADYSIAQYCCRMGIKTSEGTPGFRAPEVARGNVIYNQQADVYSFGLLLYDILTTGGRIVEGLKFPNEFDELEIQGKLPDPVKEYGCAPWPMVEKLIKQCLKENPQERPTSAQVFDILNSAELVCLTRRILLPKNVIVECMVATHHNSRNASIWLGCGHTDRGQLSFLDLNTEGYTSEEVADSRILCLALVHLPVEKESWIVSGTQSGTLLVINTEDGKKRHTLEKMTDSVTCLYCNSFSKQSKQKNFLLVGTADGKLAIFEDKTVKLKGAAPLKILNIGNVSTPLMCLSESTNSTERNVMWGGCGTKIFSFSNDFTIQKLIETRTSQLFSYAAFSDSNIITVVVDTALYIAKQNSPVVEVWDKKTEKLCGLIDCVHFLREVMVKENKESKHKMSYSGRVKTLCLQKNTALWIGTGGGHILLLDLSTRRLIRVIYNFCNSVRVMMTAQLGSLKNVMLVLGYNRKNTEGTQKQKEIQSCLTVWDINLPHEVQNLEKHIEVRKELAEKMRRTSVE
Sequence of TYK2 (P29597 whole entry): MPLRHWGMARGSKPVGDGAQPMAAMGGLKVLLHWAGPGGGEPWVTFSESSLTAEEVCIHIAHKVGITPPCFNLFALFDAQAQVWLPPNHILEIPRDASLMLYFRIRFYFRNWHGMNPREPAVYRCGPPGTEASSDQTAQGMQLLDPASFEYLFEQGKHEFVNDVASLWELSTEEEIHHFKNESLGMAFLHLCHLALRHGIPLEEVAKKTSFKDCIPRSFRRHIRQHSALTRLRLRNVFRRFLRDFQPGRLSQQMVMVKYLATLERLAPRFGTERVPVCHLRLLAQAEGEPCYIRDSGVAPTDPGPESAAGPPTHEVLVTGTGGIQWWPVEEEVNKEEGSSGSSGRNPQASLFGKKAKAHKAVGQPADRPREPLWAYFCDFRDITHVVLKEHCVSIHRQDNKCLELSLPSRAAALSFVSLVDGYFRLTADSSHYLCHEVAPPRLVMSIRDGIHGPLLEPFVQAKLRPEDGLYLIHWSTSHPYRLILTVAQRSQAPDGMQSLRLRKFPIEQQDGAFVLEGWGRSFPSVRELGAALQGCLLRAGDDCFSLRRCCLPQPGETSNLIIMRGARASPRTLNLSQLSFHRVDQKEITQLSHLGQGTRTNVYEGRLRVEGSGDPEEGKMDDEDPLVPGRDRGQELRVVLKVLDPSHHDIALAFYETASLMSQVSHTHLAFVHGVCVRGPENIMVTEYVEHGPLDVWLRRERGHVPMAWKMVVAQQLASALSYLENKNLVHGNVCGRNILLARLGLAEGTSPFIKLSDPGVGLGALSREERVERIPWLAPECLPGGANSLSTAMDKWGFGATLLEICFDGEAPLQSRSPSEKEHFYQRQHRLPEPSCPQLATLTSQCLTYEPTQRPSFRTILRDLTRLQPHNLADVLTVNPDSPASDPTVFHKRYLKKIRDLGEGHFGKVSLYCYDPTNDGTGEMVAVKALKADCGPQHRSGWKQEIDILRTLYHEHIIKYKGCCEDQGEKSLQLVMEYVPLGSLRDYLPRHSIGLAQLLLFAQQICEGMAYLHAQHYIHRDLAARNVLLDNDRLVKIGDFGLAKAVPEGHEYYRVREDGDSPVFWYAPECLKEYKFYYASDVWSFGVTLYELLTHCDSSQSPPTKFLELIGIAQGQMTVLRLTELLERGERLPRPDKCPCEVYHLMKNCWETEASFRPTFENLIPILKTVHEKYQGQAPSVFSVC

Row | Compound | IC50 (CDK2) | IC50 (TYK2) | IC50 (TDO) | IC50 (LRRK2 (G2019S))
1 | C[C@@H]1CN(c2cc(Br)cc3[nH]ncc23)CC[C@]12NC(=O)NC2=O (single isomer, unassigned) [Compound 1-1] | > 2 µM | > 2 µM | 247 nM | > 2 µM
2 | O=C1NC(=O)C2(CCN(c3cc(Cl)cc4[nH]ncc34)CC2)N1 [CC-1] | 1.5 µM | 2 µM | 206 nM | 0.94 µM
